Consider 1 compound from patent US10905775B2, “Particulate constructs for release of active agents” (CELATOR PHARMACEUTICALS, INC., priority 2004, dated 2021).

The nature of series [1]: Visual check / description of nanoparticle samples for crystals, aggregates, stability. To be noted: control: unconjugated paclitaxel 8 mg + VitES 10 mg + mPEG5-PCL7 in THF mixed against water. Format: physicochemical. The procedure:
(§1) A 300 mM sucrose solution is prepared, loaded into a 100 ml gas tight syringe, and fixed on a second syringe pump. […] At the mixer outlet, two samples are collected. The first sample is collected in a scintillation vial and analyzed for particle size by dynamic light scattering (DLS), and the second sample is collected in low temperature freezer vials, and freeze-dried. The freeze-drying cycle is the following: −40° C. overnight, −10° C. for a day, 4° C. for a day, and then room temperature for one day. […] The samples are checked visually for crystals/aggregates formation. […] A freeze-dried sample is dissolved in methanol to dissociate the nanoparticles, and the solution is tested for the presence of THF using CGC.

A short description of series [2]: Nanoparticle size by dynamic light scattering (DLS). The class given is physicochemical. To be noted: control: unconjugated paclitaxel + VitES + mPEG5-PCL7. The procedure:
as §1, with “CGC. Particle size may be determined by DLS. […] The sample collected in a scintillation vial from the mixer effluent is inserted into the DLS sample cell containing decalin scintillation fluid (maintained at 25° C. using a temperature bath), and left to equilibrate to the cell temperature. The run duration is 60 seconds, replicated three times. The particle size expressed as the hydrodynamic diameter is obtained using an ALV 5000 correlator and a second order cumulant fit.” for “CGC.”

For `CC(=O)O[C@H]1C(=O)[C@@]2(C)[C@H]([C@H](OC(=O)c3ccccc3)[C@]3(O)C[C@H](OC(=O)[C@H](O)[C@@H](NC(=O)c4ccccc4)c4ccccc4)C(C)=C1C3(C)C)[C@]1(OC(C)=O)CO[C@@H]1C[C@@H]2O` [paclitaxel], in series [1], the “time after mixing at which crystals were visible” value is listed as “about 20 minutes”. For the same compound, the “particles detected by Dynamic Light Scattering” value in series [2] was “no particles were detected”.
